Where two headings read alike, the source gives them in different places.
Assays:
mice = assay: Glucose tolerance test (GTT); format: in vivo, mouse; conditions: 24 h GTT, s.c., dose range 2-5 nmol/kg, percent of vehicle
Method: Freestyle Lite glucometer and strips; compounds to be tested; sterilized glucose solution 200 mg/ml.
Compounds were diluted in PBS from the 1 mM DMSO stocks right before injection. Body weight and baseline blood glucose level for each mouse were measured. Tails were snipped using sterile scissors; blood from tails was used to measure glucose. For 0.25 h GTT, mice were fasted for 5-6 h and injected with compound subcutaneously 15 mins before glucose injection. For 4 h GTT, mice were fasted O/N for 16 h and injected with compound subcutaneously 4 h before glucose injection. For 16 h GTT, mice were injected with compound subcutaneously 16 h before glucose injection; food was removed at the same time. For 24 h GTT, mice were injected with compound subcutaneously 24 h before glucose injection; food was removed 5-6 h before glucose injection. 20% glucose in water was prepared; the solution was sterilized by 0.2 μm-filtration. An intraperitoneal injection of glucose (2 g/kg) was given to the mouse. Continued to take blood samples from the tail. Blood glucose was measured at 10, 20, 30, 40, 60, 90, and 120 minutes after glucose injection. Between each of these time points, the mouse was returned to its cage and monitored (at least 6 replicate mice were used for each time-point). The average glucose measurements were plotted as a function of time and the area under the curve (AUC) was determined.

GIP-R = target: T1, GIP-R (Homo sapiens, UniProt P48546); assay: HitHunter cAMP assay (GIP-R); format: cell-based; conditions: cAMP; for Emax: read-out: (Emax) GIP-R; for EC50: read-out: EC50 GIP-R/nM
T1 sequence (P48546 22-466): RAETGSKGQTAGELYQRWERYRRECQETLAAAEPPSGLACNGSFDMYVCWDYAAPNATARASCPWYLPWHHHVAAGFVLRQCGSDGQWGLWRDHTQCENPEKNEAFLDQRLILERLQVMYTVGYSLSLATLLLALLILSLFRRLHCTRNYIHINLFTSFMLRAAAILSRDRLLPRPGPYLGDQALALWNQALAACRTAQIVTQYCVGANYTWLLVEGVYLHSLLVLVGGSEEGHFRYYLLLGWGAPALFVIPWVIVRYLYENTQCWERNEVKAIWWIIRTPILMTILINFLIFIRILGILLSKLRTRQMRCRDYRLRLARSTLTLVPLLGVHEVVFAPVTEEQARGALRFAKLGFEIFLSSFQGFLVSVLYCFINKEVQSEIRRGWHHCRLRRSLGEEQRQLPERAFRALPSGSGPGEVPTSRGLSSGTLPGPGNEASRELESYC
Outline: (§1)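 cAMP, luminescence read: agonist 22-pt 2× dilution in DMSO, duplicate, 30 min RT on 10,000 cells/well in 1×HBSS/10 mM HEPES/625 μM IBMX/0.2% BSA; anti-cAMP reagent 1 h RT dark, then O/N RT dark before read.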

GLP-1R [1] = target: T2, GLP-1R (Homo sapiens, UniProt P43220); assay: PathHunter β-arrestin assay; format: cell-based; conditions: PathHunter β-arrestin assay; read-out: β-arrestin activity EC50
Outline: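 Luminescence read-out of β-arrestin recruitment (enzyme-fragment complementation detection, 3 h at room temperature in the dark) after 90 min agonist stimulation at 37 °C. Agonists tested as 22-point 2× serial dilutions in duplicate, in medium containing 0.2% BSA.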

GLP-1R [2] = target: T2, GLP-1R; assay: HitHunter cAMP assay (GLP-1R); format: cell-based; conditions: cAMP; for Emax: read-out: (Emax) GLP-1R; for EC50: read-out: EC50 GLP-1R/nM
Outline: as §1

T2 sequence (P43220 24-463): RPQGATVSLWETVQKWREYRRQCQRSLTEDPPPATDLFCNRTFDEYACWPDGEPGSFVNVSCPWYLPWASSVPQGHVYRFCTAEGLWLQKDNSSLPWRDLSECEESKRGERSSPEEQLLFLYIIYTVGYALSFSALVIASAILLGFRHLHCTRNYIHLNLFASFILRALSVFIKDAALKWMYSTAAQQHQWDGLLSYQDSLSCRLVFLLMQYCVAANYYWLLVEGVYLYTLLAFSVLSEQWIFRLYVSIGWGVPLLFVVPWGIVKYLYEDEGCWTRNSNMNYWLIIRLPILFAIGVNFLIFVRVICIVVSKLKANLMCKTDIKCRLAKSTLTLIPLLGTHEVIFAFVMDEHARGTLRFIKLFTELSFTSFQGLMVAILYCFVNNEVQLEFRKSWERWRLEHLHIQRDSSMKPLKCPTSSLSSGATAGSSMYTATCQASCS

Row | Structure (SMILES) | AUC score (mice) | Emax (GIP-R; Table 3) | EC50 (GIP-R; Table 3) | Emax (GIP-R; Table 3A) | EC50 (GIP-R; Table 3A) | EC50 (GLP-1R [1]) | Emax (GLP-1R [2]; Table 3) | EC50 (GLP-1R [2]; Table 3) | Emax (GLP-1R [2]; Table 3A) | EC50 (GLP-1R [2]; Table 3A) | (Emax) GIP-R (GIP-R; Table 3) | (Emax) GIP-R (GIP-R; Table 3A) | (Emax) GLP-1R (GLP-1R [2]; Table 3) | (Emax) GLP-1R (GLP-1R [2]; Table 3A)
1 | CCCCCCCCCCCCCCCC(=O)N[C@@H](CCC(=O)NCCCC[C@H](NC(=O)[C@H](CO)NC(=O)[C@@H]1CCCN1C(=O)[C@@H]1CCCN1C(=O)[C@@H]1CCCN1C(=O)[C@H](C)NC(=O)CNC(=O)[C@H](CO)NC(=O)[C@H](CO)NC(=O)[C@@H]1CCCN1C(=O)CNC(=O)CNC(=O)[C@H](C)NC(=O)[C@H](CC(C)C)NC(=O)[C@H](CC(C)C)NC(=O)[C@H](Cc1c[nH]c2ccccc12)NC(=O)[C@H](CC(N)=O)NC(=O)[C@@H](NC(=O)[C@H](Cc1ccccc1)NC(=O)[C@H](CCC(=O)O)NC(=O)C(C)(C)NC(=O)[C@H](C)NC(=O)[C@H](C)NC(=O)[C@H](CCC(N)=O)NC(=O)[C@H](CCCCN)NC(=O)[C@H](CC(=O)O)NC(=O)[C@H](CC(C)C)NC(=O)[C@H](Cc1ccc(O)cc1)NC(=O)[C@@H](NC(=O)[C@H](CO)NC(=O)[C@H](Cc1ccc(O)cc1)NC(=O)[C@H](CC(=O)O)NC(=O)[C@H](CO)NC(=O)[C@@H](NC(=O)[C@H](Cc1ccccc1)NC(=O)[C@@H](NC(=O)CNC(=O)[C@H](CCC(=O)O)NC(=O)CSCC(=O)NCCN1CCC(C)C1=O)[C@@H](C)O)[C@@H](C)O)[C@@H](C)CC)C(C)C)C(N)=O)C(=O)O (single isomer, unassigned) [Compound 68] | 2 (AUC score 2 = 26-50%) | 87% | 0.1 to 1 nM | 87% | 0.1 to 1 nM | > 1000 nM | 109% | 0.1 to 1 nM | 109% | 0.1 to 1 nM | – | – | – | –
2 | CCCCCCCCCCCCCCCC(=O)N[C@@H](CCC(=O)NCCCC[C@H](NC(=O)[C@H](CO)NC(=O)[C@@H]1CCCN1C(=O)[C@@H]1CCCN1C(=O)[C@@H]1CCCN1C(=O)[C@H](C)NC(=O)CNC(=O)[C@H](CO)NC(=O)[C@H](CO)NC(=O)[C@@H]1CCCN1C(=O)CNC(=O)CNC(=O)[C@H](C)NC(=O)[C@H](CC(C)C)NC(=O)[C@H](CC(C)C)NC(=O)[C@H](Cc1c[nH]c2ccccc12)NC(=O)[C@H](CC(N)=O)NC(=O)[C@@H](NC(=O)[C@H](Cc1ccccc1)NC(=O)[C@H](CCC(=O)O)NC(=O)C(C)(C)NC(=O)[C@H](C)NC(=O)[C@H](C)NC(=O)[C@H](CCC(N)=O)NC(=O)[C@H](CCCCN)NC(=O)[C@H](CC(=O)O)NC(=O)[C@H](CC(C)C)NC(=O)[C@H](Cc1ccc(O)cc1)NC(=O)[C@@H](NC(=O)[C@H](CO)NC(=O)[C@H](Cc1ccc(O)cc1)NC(=O)[C@H](CC(=O)O)NC(=O)[C@H](CO)NC(=O)[C@@H](NC(=O)[C@H](Cc1ccccc1)NC(=O)[C@@H](NC(=O)CNC(=O)[C@H](CCC(=O)O)NC(=O)CSCC(=O)NCCN1CCC(C)C1=O)[C@@H](C)O)[C@@H](C)O)[C@@H](C)CC)C(C)C)C(N)=O)C(=O)O (single isomer, unassigned) [Compound 69] | 2 (AUC score 2 = 26-50%) | – | 1 to 10 nM | – | 1 to 10 nM | > 1000 nM | – | 0.1 to 1 nM | – | 0.1 to 1 nM | 75% | 75% | 104% | 104%
3 | CCCCCCCCCCCCCCCC(=O)N[C@@H](CCC(=O)NCCCC[C@H](NC(=O)[C@H](CO)NC(=O)[C@@H]1CCCN1C(=O)[C@@H]1CCCN1C(=O)[C@@H]1CCCN1C(=O)[C@H](C)NC(=O)CNC(=O)[C@H](CO)NC(=O)[C@H](CO)NC(=O)[C@@H]1CCCN1C(=O)CNC(=O)CNC(=O)[C@H](C)NC(=O)[C@H](CC(C)C)NC(=O)[C@H](CC(C)C)NC(=O)[C@H](Cc1c[nH]c2ccccc12)NC(=O)[C@H](CC(N)=O)NC(=O)[C@@H](NC(=O)[C@H](Cc1ccccc1)NC(=O)[C@H](CCC(=O)O)NC(=O)C(C)(C)NC(=O)[C@H](C)NC(=O)[C@H](C)NC(=O)[C@H](CCC(N)=O)NC(=O)[C@H](CCCCN)NC(=O)[C@H](CC(=O)O)NC(=O)[C@H](CC(C)C)NC(=O)[C@H](Cc1ccc(O)cc1)NC(=O)[C@@H](NC(=O)[C@H](CO)NC(=O)[C@H](Cc1ccc(O)cc1)NC(=O)[C@H](CC(=O)O)NC(=O)[C@H](CO)NC(=O)[C@@H](NC(=O)[C@H](Cc1ccccc1)NC(=O)[C@@H](NC(=O)CNC(=O)[C@H](CCC(=O)O)NC(=O)CNC(=O)CCN1CCCCC1=O)[C@@H](C)O)[C@@H](C)O)[C@@H](C)CC)C(C)C)C(N)=O)C(=O)O [Compound 1] | 3 (AUC score 3 = 51-75%) | 23% | 1 to 10 nM | 23% | 10 to 100 nM | > 1000 nM | 97% | 0.1 to 1 nM | 97% | 0.1 to 1 nM | – | – | – | –
4 | CCCCCCCCCCCCCCCC(=O)N[C@@H](CCC(=O)NCCCC[C@H](NC(=O)[C@H](CO)NC(=O)[C@@H]1CCCN1C(=O)[C@@H]1CCCN1C(=O)[C@@H]1CCCN1C(=O)[C@H](C)NC(=O)CNC(=O)[C@H](CO)NC(=O)[C@H](CO)NC(=O)[C@@H]1CCCN1C(=O)CNC(=O)CNC(=O)[C@H](C)NC(=O)[C@H](CC(C)C)NC(=O)[C@H](CC(C)C)NC(=O)[C@H](Cc1c[nH]c2ccccc12)NC(=O)[C@H](CC(N)=O)NC(=O)[C@@H](NC(=O)[C@H](Cc1ccccc1)NC(=O)[C@H](CCC(=O)O)NC(=O)C(C)(C)NC(=O)[C@H](C)NC(=O)[C@H](C)NC(=O)[C@H](CCC(N)=O)NC(=O)[C@H](CCCCN)NC(=O)[C@H](CC(=O)O)NC(=O)[C@H](CC(C)C)NC(=O)[C@H](Cc1ccc(O)cc1)NC(=O)[C@@H](NC(=O)[C@H](CO)NC(=O)[C@H](Cc1ccc(O)cc1)NC(=O)[C@H](CC(=O)O)NC(=O)[C@H](CO)NC(=O)[C@@H](NC(=O)[C@H](Cc1ccccc1)NC(=O)[C@@H](NC(=O)CNC(=O)[C@H](CCC(=O)O)NC(=O)CNC(=O)CN1CCCCC1=O)[C@@H](C)O)[C@@H](C)O)[C@@H](C)CC)C(C)C)C(N)=O)C(=O)O [Compound 2] | 2 (AUC score 2 = 26-50%) | 46% | 1 to 10 nM | 46% | 1 to 10 nM | > 1000 nM | 99% | < 0.1 nM | 99% | < 0.1 nM | – | – | – | –
5 | CCCCCCCCCCCCCCCC(=O)N[C@@H](CCC(=O)NCCCC[C@H](NC(=O)[C@H](CO)NC(=O)[C@@H]1CCCN1C(=O)[C@@H]1CCCN1C(=O)[C@@H]1CCCN1C(=O)[C@H](C)NC(=O)CNC(=O)[C@H](CO)NC(=O)[C@H](CO)NC(=O)[C@@H]1CCCN1C(=O)CNC(=O)CNC(=O)[C@H](C)NC(=O)[C@H](CC(C)C)NC(=O)[C@H](CC(C)C)NC(=O)[C@H](Cc1c[nH]c2ccccc12)NC(=O)[C@H](CC(N)=O)NC(=O)[C@@H](NC(=O)[C@H](Cc1ccccc1)NC(=O)[C@H](CCC(=O)O)NC(=O)C(C)(C)NC(=O)[C@H](C)NC(=O)[C@H](C)NC(=O)[C@H](CCC(N)=O)NC(=O)[C@H](CCCCN)NC(=O)[C@H](CC(=O)O)NC(=O)[C@H](CC(C)C)NC(=O)[C@H](Cc1ccc(O)cc1)NC(=O)[C@@H](NC(=O)[C@H](CO)NC(=O)[C@H](Cc1ccc(O)cc1)NC(=O)[C@H](CC(=O)O)NC(=O)[C@H](CO)NC(=O)[C@@H](NC(=O)[C@H](Cc1ccccc1)NC(=O)[C@@H](NC(=O)CNC(=O)[C@H](CCC(=O)O)NC(=O)CSCC(=O)NCCN1C(=O)COC1=O)[C@@H](C)O)[C@@H](C)O)[C@@H](C)CC)C(C)C)C(N)=O)C(=O)O [Compound 59] | 3 (AUC score 3 = 51-75%) | 31% | 1 to 10 nM | 31% | 1 to 10 nM | – | 108% | < 0.1 nM | 108% | < 0.1 nM | – | – | – | –

Reference: patent US20260176320A1, “MODULATORS OF G-PROTEIN COUPLED RECEPTORS” (priority 2018, published 2026)
